Columns and labels:
[1] = Inhibition of Iks current in isolated guinea pig myocytes during a 1s voltage clamp step from -50 to +50 mV.; type: functional, cell-based; details: Cavia porcellus
[2] = molecular target: T1, IKr current (KCNH2 potassium channel) (Homo sapiens, UniProt Q12809); test: Inhibition of Ikr current in isolated guinea pig myocytes during a 0.5 s voltage clamp step from -50 to -10 mV at 1000 nM; type: functional, cell-based, Cavia porcellus; details: target entry is the homologue from another species
T1 sequence (Q12809 whole entry): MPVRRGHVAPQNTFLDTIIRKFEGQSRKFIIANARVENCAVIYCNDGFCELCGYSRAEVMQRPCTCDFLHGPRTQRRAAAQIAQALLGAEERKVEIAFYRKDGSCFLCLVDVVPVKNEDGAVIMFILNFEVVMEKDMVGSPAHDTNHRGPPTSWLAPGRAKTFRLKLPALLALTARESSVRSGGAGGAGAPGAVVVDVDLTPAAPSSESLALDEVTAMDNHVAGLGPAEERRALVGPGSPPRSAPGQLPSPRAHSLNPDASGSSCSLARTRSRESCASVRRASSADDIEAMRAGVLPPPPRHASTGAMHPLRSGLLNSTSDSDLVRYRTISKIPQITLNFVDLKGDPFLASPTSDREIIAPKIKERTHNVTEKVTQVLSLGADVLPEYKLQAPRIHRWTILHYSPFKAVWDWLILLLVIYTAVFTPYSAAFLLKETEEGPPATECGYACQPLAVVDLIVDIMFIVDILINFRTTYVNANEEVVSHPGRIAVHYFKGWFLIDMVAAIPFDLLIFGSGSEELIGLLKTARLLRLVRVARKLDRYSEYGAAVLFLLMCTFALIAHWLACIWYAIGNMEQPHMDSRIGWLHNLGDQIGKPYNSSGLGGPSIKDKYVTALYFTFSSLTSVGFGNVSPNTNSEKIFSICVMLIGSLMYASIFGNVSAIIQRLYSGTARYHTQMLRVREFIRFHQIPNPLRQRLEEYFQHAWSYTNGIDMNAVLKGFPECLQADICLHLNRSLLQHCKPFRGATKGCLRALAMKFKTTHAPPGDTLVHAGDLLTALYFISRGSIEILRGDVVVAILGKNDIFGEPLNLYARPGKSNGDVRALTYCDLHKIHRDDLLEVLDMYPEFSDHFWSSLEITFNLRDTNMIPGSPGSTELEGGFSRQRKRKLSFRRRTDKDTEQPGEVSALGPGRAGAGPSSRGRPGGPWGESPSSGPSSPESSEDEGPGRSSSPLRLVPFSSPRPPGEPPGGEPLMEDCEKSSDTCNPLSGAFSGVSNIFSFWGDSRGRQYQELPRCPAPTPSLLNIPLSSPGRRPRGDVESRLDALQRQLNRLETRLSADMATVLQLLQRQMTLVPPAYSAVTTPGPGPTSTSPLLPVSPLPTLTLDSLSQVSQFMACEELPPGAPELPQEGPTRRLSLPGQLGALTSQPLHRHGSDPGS

[3] = molecular target: T1, IKr current (KCNH2 potassium channel); test: Inhibition of Ikr current in isolated guinea pig myocytes during a 0.5 s voltage clamp step from -50 to -10 mV at 100 nM; type: functional, cell-based, Cavia porcellus; details: target entry is the homologue from another species
[4] = molecular target: Voltage-gated inwardly rectifying potassium channel KCNH2 (Homo sapiens, UniProt Q12809); test: Inhibition of Ikr current in isolated guinea pig myocytes during a 0.5 s voltage clamp step from -50 to -10 mV.; type: functional, cell-based, Cavia porcellus; details: target entry is the homologue from another species
Chain of Voltage-gated inwardly rectifying potassium channel KCNH2 (Q12809 whole entry): as above

Compound | IC50 [1] [nM] | inhibition at 1 µM [2] [%] | also measured
CN1C(=O)[C@H](NC(=O)Cc2ccc(C(F)(F)F)cc2C(F)(F)F)N=C(c2ccccc2)c2ccccc21 | 140 | – | –
CN1C(=O)[C@H](NC(=O)Cc2ccccc2)N=C(c2ccccc2)c2ccccc21 | 300 | 31 | –
CN1C(=O)[C@H](NC(=O)CCc2ccccc2)N=C(c2ccccc2)c2ccccc21 | 200 | 32 | –
CC(C)N1C(=O)[C@H](NC(=O)CCC2CCCCC2)N=C(c2ccccc2)c2ccccc21 | 20 | – | –
CC(C)N1C(=O)[C@H](NC(=O)c2cc(Cl)cc(Cl)c2)N=C(c2ccccc2)c2ccccc21 | 6 | – | –
CN1C(=O)[C@H](NC(=O)c2cc(Cl)cc(Cl)c2)N=C(c2ccccc2)c2ccccc21 | 45 | 17 | –
O=C(N[C@@H]1N=C(c2ccccc2)c2ccccc2N(CC(F)(F)F)C1=O)c1cc(Cl)cc(Cl)c1 | 11 | – | inhibition at 0.1 µM [3]: 25%
O=C(Cc1ccc(Cl)cc1Cl)N[C@@H]1N=C(c2ccccc2)c2ccccc2N(CC(F)(F)F)C1=O | 9 | – | –
CN(C)CCN1C(=O)C(NC(=O)CCc2ccc(Cl)cc2Cl)N=C(c2ccccc2)c2ccccc21 (stereo not drawn) | – | – | IC50 [4]: 100 nM
CN1C(=O)[C@H](NC(=O)c2ccccc2)N=C(c2ccccc2)c2ccccc21 | 600 | 23 | –
CC(C)N1C(=O)[C@@H](NC(=O)c2cc(Cl)cc(Cl)c2)N=C(c2ccccc2)c2ccccc21 | – | 6 | –
CN1C(=O)[C@H](NC(=O)/C=C/c2ccc(Cl)cc2Cl)N=C(c2ccccc2)c2ccccc21 | 6 | – | –
CN1C(=O)[C@H](NC(=O)C(N)Cc2ccccc2)N=C(c2ccccc2)c2ccccc21 (stereo partly drawn) | 2800 | – | –
CC(=O)Nc1ccc(CCC(=O)N[C@@H]2N=C(c3ccccc3)c3ccccc3N(C)C2=O)cc1 | > 10000 | – | –
O=C(Cc1cc(Cl)cc(Cl)c1)N[C@@H]1N=C(c2ccccc2)c2ccccc2N(CC(F)(F)F)C1=O | 30 | – | IC50 [4]: 4000 nM
CN1C(=O)[C@H](NC(=O)CCC2CCCCC2)N=C(c2ccccc2)c2ccccc21 | 10 | – | IC50 [4]: 1000 nM
O=C(Cc1ccc(C(F)(F)F)cc1C(F)(F)F)N[C@H]1N=C(c2ccccc2)c2ccccc2N(CC(F)(F)F)C1=O | – | 35 | –
CC(C)N1C(=O)[C@H](NC(=O)Cc2cc(Cl)cc(Cl)c2)N=C(c2ccccc2)c2ccccc21 | 10 | – | –
CN1C(=O)[C@H](NC(=O)CCc2ccc(Cl)cc2Cl)N=C(c2ccccc2)c2ccccc21 | – | 31 | –
Cc1cccc(NC(=O)N[C@@H]2N=C(c3ccccc3)c3ccccc3N(C)C2=O)c1 [L-365260] | 214 | – | –
O=C(Cc1ccc(C(F)(F)F)cc1C(F)(F)F)N[C@@H]1N=C(c2ccccc2)c2ccccc2N(CC(F)(F)F)C1=O [L-768673] | 6 | – | –
